Test results published in US4946957A, “Anti-tumor DC-52 derivatives” (Kyowa Hakko Kogyo Co., Ltd., priority 1986, dated 1990).
Like-named read-outs stand apart in the source and are kept apart here.

Key:
[1] = system: lymphocytic leukemia P-388; assay: Anti-tumor activity against lymphocytic leukemia P-388 (i.p. implanted, single i.p. dose); type: in vivo, male CDF mice; conditions: Mus musculus, P388, ip, read-out: T/C
Protocol: The experiment was carried out in the following manner.
Five male CDF mice each having a weight of about 22 g were used for each group as test animals, and 1×10^6 cells of lymphocytic leukemia P-388 tumor were implanted intraperitoneally into the test animals. After 24 hours, 0.2 ml of phosphate-buffered physiological saline containing a test compound was administered once intraperitoneally. The life-prolongingeffect of the compound was represented by T/C.

[2] = Acute toxicity (single i.p. administration); conditions: mouse, in vivo, ip, ddy mice, method of Behrens-Kolber
Protocol: Five ddy mice were used for each group as test animals, and each test compound was administered once intraperitoneally to the respective groups of animals. LD50 was calculated from the death-rate of each group according to the method of Behrens-Kolber.

[3] = in words; Japanese Published Unexamined Patent Application No. 210086/84; cited from earlier work
a variety of bacteria = conditions: in words; Japanese Published Unexamined Patent Application No. 170189/82; cited from earlier work
[4] = system: lymphocytic leukemia P-388; conditions: in words; Japanese Published Unexamined Patent Application No. 170189/82; cited from earlier work
[5] = dose 12.5 mg/kg, single i.p., 24 hours after implantation of 1×10^6 P-388 cells, life-prolonging effect
[6] = dose 25 mg/kg, single i.p., 24 hours after implantation of 1×10^6 P-388 cells, life-prolonging effect

COc1ccc(Br)c2c1C1COC3C4CC(C(=O)O)C(C(C2)N13)N4C (stereo not shown) [Compound 4]
response vs control in vivo at 12.5 mg/kg [1, 5]: 150%

COc1ccc(Br)c2c1C(CO)N1C(C#N)C3CC(C(=O)O)C(C1C2)N3C (stereo not shown) [Compound 3]
LD50 [2]: 50 mg/kg

COc1ccc(I)c2c1C1COC3C4CC(C(=O)O)C(C(C2)N13)N4C (stereo not shown) [Compound 6]
response vs control in vivo at 25 mg/kg [1, 6]: 124%

COc1ccc(I)c2c1C(CO)N1C(C#N)C3CC(C(=O)O)C(C1C2)N3C (stereo not shown) [Compound 5]
LD50 [2]: 100 mg/kg
response vs control in vivo at 50 mg/kg ([1]; 24 h): 131%

COc1ccc(O)c2c1C(CO)N1C(C#N)C3CC(C(=O)O)C(C1C2)N3C (stereo not shown) [Compound 11]
response vs control in vivo at 25 mg/kg [1, 6]: 142%

COc1cccc2c1C(CO)N1C(C#N)C3CC(C(=O)O)C(C1C2)N3C (stereo not shown) [DX-52-1]
anti-tumor activity [3]: having anti-tumor activity

COc1ccc(C#N)c2c1C(CO)N1C(C#N)C3CC(C(=O)O)C(C1C2)N3C (stereo not shown) [Compound 9]
LD50 [2]: > 100 mg/kg
response vs control in vivo at 25 mg/kg ([1]; 24 h): 140%

COc1ccc(Cl)c2c1C(CO)N1C(C#N)C3CC(C(=O)O)C(C1C2)N3C (stereo not shown) [Compound 1]
LD50 [2]: 50 mg/kg
response vs control in vivo at 12.5 mg/kg ([1]; 24 h): 123%

COc1ccc(Cl)c2c1C1COC3C4CC(C(=O)O)C(C(C2)N13)N4C (stereo not shown) [Compound 2]
response vs control in vivo at 12.5 mg/kg [1, 5]: 140%

COc1ccc(C=O)c2c1C(CO)N1C(C#N)C3CC(C(=O)O)C(C1C2)N3C (stereo not shown) [Compound 7]
response vs control in vivo at 200 mg/kg ([1]; dose 200 mg/kg, single i.p., 24 hours after implantation of 1×10^6 P-388 cells, life-prolonging effect): 138%

COc1ccc(C#N)c2c1C1COC3C4CC(C(=O)O)C(C(C2)N13)N4C (stereo not shown) [Compound 10]
LD50 [2]: > 50 mg/kg

COc1cccc2c1C1COC3C4CC(C(=O)O)C(C(C2)N13)N4C (stereo not shown) [DC-52]
antibacterial activity (a variety of bacteria): shows antibacterial activity against a variety of bacteria
anti-tumor activity against lymphocytic leukemia P-388 and the like [4]: has anti-tumor activity against lymphocytic leukemia P-388 and the like
